Test results taken from ChEMBL document CHEMBL5614418, “Discovery of novel dihydropyrrolidone-thiadiazole compound crosstalk between the YycG/F two-component regulatory pathway and cell membrane homeostasis to combat methicillin-resistant Staphylococcus aureus” (Eur J Med Chem, 2024).
The source made the active and inactive calls. No cut-off for these calls is given here.

Legend:
Staphylococcus aureus = experiment: Inhibition of biofilm formation in methicillin resistant Staphylococcus aureus YUSA145 at 1/2 MIC incubated for 16 hrs by SEM analysis; assay type: functional, organism-based
[1] = biological target: T1, Sensor protein kinase WalK (Staphylococcus aureus, UniProt Q9RDT3); experiment: Inhibition of Staphylococcus aureus YycG expressed in Escherichia coli preincubated for 30 mins followed by ATP addition and measured after 30 mins by kinase-Glo luminescent assay
T1 sequence (Q9RDT3 whole entry): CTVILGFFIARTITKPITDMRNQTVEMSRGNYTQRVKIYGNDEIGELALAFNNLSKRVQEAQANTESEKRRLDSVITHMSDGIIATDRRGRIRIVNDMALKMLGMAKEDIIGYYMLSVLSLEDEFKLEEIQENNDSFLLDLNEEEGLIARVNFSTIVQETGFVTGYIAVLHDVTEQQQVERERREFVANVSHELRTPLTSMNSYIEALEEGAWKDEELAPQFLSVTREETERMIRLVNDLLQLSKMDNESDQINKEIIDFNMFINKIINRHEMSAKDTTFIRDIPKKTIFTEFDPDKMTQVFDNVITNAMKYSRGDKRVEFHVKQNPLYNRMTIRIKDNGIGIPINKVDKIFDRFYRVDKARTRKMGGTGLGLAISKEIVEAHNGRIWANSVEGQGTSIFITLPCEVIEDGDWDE

O=C(C1=C(O)C(=O)N(c2nnc(SCc3ccccc3Cl)s2)C1c1ccccc1O)c1cc2ccccc2o1 (configuration not stated)
inhibition (Staphylococcus aureus): Active
IC50 [1]: 19.5 µM
